For the experiment, the system named is Th17 cells. Put plainly: Intracellular metabolites by CE-MS. Format: cell-based, mouse. The procedure:
CD4 T cells were differentiated under Th17 polarization conditions and were either treated with DMSO (control) or FGIN-1-27. The error bars represent SD. (a) Genomic browser screenshots of IL-17a, IL-17f and Rorc loci depicting normalized RNA-seq read coverage (RPM) in Th17 cells treated with DMSO or FGIN-1-27 for 24 hours. […] (c) Heat map showing differentially expressed genes encoding glycolytic enzymes in Th17 cells treated with DMSO or FGIN-1-27 for 24 hours (d) Glycolytic metabolites measured in Th17 cells treated with DMSO or FGIN-1-27 for 72 hours. (e) Metabolites in the TCA cycle were measured in Th17 cells treated with DMSO or FGIN-1-27 for 72 hours.
8 million cells treated with either DMSO or FGIN-1-27 were used for extraction of intracellular metabolites. The cells were washed twice with 5% mannitol and treated with methanol to inactivate the enzymes. Next, the cell extract was treated with Milli-Q water containing internal standards (H3304-1002, Human Metabolome Technologies, inc., Tsuruoka, Japan) and left at rest for another 30 s. The extract was obtained and centrifuged at 2,300 ×g and 4 °C for 5 min and then 800 µL of upper aqueous layer was centrifugally filtered through a Millipore 5-kDa cutoff filter at 9,100 ×g and 4 °C for 120 min to remove proteins. The filtrate was centrifugally concentrated and re-suspended in 50 µL of Milli-Q water for CE-MS analysis. Cationic compounds were measured in the positive mode of CE-TOFMS and anionic compounds were measured in the positive and negative modes of CE-MS/MS according to the methods developed by Soga, et al.[39],[40]. Peaks detected by CE-TOFMS and CE-MS/MS were extracted using automatic integration software (MasterHands, Keio University, Tsuruoka, Japan and MassHunter Quantitative Analysis B.04.00, Agilent Technologies, Santa Clara, CA, USA, respectively) in order to obtain peak information including m/z, migration time (MT), and peak area. The peaks were annotated with putative metabolites from the HMT metabolite database based on their MTs in CE and m/z values determined by TOFMS. The tolerance range for the peak annotation was configured at ±0.5 min for MT and ±10 ppm for m/z. In addition, concentrations of metabolites were calculated by normalizing the peak area of each metabolite with respect to the area of the internal standard and by using standard curves, which were obtained by three-point calibrations. Hierarchical cluster analysis (HCA) and principal component analysis (PCA) were performed by Human Metabolome proprietary software, PeakStat and SampleStat, respectively. Detected metabolites were plotted on metabolic pathway maps using VANTED (Visualization and Analysis of Networks containing Experimental Data) software.

SMILES strings stand for the structures.

Turning to `CCCCCCN(CCCCCC)C(=O)Cc1c(-c2ccc(F)cc2)[nH]c2ccccc12` [FGIN-1-27, N, N-di-n-hexyl 2-(4-fluorophenyl) indole-3-acetamide], where the note is “72 hours”, the “TCA cycle intermediates (citric acid, cis-aconitic acid, 2-hydroxyglutaric acid, malic acid)” value was “additionally reduced”; the lactate entry is on record as “unchanged levels”; the pyruvate result is recorded as “lower levels”. Further, for the setting “72 hours post compound treatment”, the amino acids result is “significant increase”. Moreover, the “upper glycolytic intermediates (F6P, F1,6P, 3-PG, 2-PG)” value (72 hours, vs DMSO) was “substantially reduced”.

Source of the values: paper PMC7048748, “Anxiolytic Drug FGIN-1-27 Ameliorates Autoimmunity by Metabolic Reprogramming of Pathogenic Th17 Cells” (Scientific Reports, 2020).
